According to patent publication US12365850B2, “Water-miscible functional fluid, undiluted stock of water-miscible functional fluid, sterilizer for water-miscible functional fluid, and method of sterilizing water-miscible function fluid” (priority 2020, dated 2025):
Where two headings read alike, the source gives them in different places.

Columns and labels:
[1] = pH drop suppression test of water-miscible cutting fluid (circulation and blue LED irradiation); assay type: physicochemical
bacteria = experiment: Photosterilization test of neutral photosensitizers (bacterial count after light irradiation); assay type: cell-based
[2] = 100%×(pH at preparation−pH after continuing use)/(pH at preparation), riboflavin cutting fluid with the named antioxidant
[3] = class by pH change rate, riboflavin cutting fluid with the named antioxidant
[4] = riboflavin cutting fluid containing the named antioxidant, one month, Table 3 (same values as Table 2)
[5] = wavelength 450 nm, irradiance 100 μW/cm2, light intensity 10 J/cm2, photosensitizer 50 ppm (Lumichrome 20 ppm)
[6] = wavelength 450 nm, irradiance 100 μW/cm2, light intensity 30 J/cm2, photosensitizer 50 ppm (Lumichrome 20 ppm)
[7] = wavelength 450 nm, irradiance 100 μW/cm2, light intensity 50 J/cm2, photosensitizer 50 ppm (Lumichrome 20 ppm)
[8] = wavelength 450 nm, irradiance 100 μW/cm2, light intensity 100 J/cm2, photosensitizer 50 ppm (Lumichrome 20 ppm)
[9] = wavelength 450 nm, irradiance 100 μW/cm2, light intensity 200 J/cm2, photosensitizer 50 ppm (Lumichrome 20 ppm)
[10] = wavelength 450 nm, irradiance 100 μW/cm2, light intensity 400 J/cm2, photosensitizer 50 ppm (Lumichrome 20 ppm)

NCC1CCCC(CN)C1 (stereo not shown) [1,3-Bis(aminomethyl)cyclohexane]
pH change rate (%) [1, 2]: 16.3%
Evaluation of pH drop supression [1, 3]: B (pH change rate higher than 15% and at most 20%)
pH change [1, 4]: 1.4

Sc1nc2ccccc2[nH]1 [2-mercaptobenzimidazole]
Evaluation of pH drop supression [1]: C (key: A: pH change rate of 15% or lower; B: pH change rate higher than 15% and at most 20%; C: pH change rate higher than 20% and at most 30%; D: pH change rate higher than 30%)
pH change [1]: 2.4
pH change rate (%) [1]: 27.9%

Cc1cc(C(C)(C)C)c(O)c(C(C)(C)C)c1 [BHT, butylated hydroxytoluene]
pH change rate (%) [1, 2]: 11.6%
Evaluation of pH drop supression [1, 3]: A (pH change rate of 15% or lower)
pH change [1, 4]: 1

Cc1c(C)c2c(c(C)c1O)CC[C@@](C)(CCC[C@H](C)CCC[C@H](C)CCCC(C)C)O2 [D-α-tocopherol]
pH change rate (%) [1, 2]: 7.0%
Evaluation of pH drop supression [1, 3]: A (pH change rate of 15% or lower)
pH change [1, 4]: 0.6

CC(O)CNCC(C)O (stereo not shown) [Di-isopropanolamine]
pH change rate (%) [1, 2]: 8.1%
Evaluation of pH drop supression [1, 3]: A (pH change rate of 15% or lower)
pH change [1, 4]: 0.7

OCCNCCO [Diethanolamine]
pH change rate (%) [1, 2]: 8.1%
Evaluation of pH drop supression [1, 3]: A (pH change rate of 15% or lower)
pH change [1, 4]: 0.7

O=C([O-])CN(CCN(CC(=O)[O-])CC(=O)O)CC(=O)O.[Na+].[Na+] [Disodium edetate]
Evaluation of pH drop supression [1]: A (key: A: pH change rate of 15% or lower; B: pH change rate higher than 15% and at most 20%; C: pH change rate higher than 20% and at most 30%; D: pH change rate higher than 30%)
pH change [1]: 0.8
pH change rate (%) [1]: 9.3%

Cc1cc2nc3c(=O)[nH]c(=O)nc-3n(C[C@H](O)[C@H](O)[C@H](O)CO)c2cc1C [Example 1, Riboflavin]
change in the bacterial count due to the light irradiation (bacteria; result in words): a decrease in the bacterial count was found
Bacterial count (bacteria; wavelength 275 nm, irradiance 100 μW/cm2, light intensity 10 J/cm2, photosensitizer 50 ppm): ++ (bacterial count was 1.0×10^6 CFU/ml to 1.4×10^7 CFU/ml)
Bacterial count (bacteria; wavelength 275 nm, irradiance 100 μW/cm2, light intensity 30 J/cm2, photosensitizer 50 ppm): ++ (bacterial count was 1.0×10^6 CFU/ml to 1.4×10^7 CFU/ml)
Bacterial count (bacteria; wavelength 275 nm, irradiance 100 μW/cm2, light intensity 50 J/cm2, photosensitizer 50 ppm): + (bacterial count was at least 1.0×10^2 CFU/ml and less than 1.0×10^6 CFU/ml)
Bacterial count (bacteria; wavelength 275 nm, irradiance 100 μW/cm2, light intensity 100 J/cm2, photosensitizer 50 ppm): + (bacterial count was at least 1.0×10^2 CFU/ml and less than 1.0×10^6 CFU/ml)
Bacterial count (bacteria; wavelength 275 nm, irradiance 100 μW/cm2, light intensity 200 J/cm2, photosensitizer 50 ppm): + (bacterial count was at least 1.0×10^2 CFU/ml and less than 1.0×10^6 CFU/ml)
Bacterial count (bacteria; wavelength 275 nm, irradiance 100 μW/cm2, light intensity 400 J/cm2, photosensitizer 50 ppm): − (bacterial count was at least 0 and less than 1.0×10^2 CFU/mil)
Bacterial count (bacteria; wavelength 380 nm, irradiance 1200 μW/cm2, light intensity 10 J/cm2, photosensitizer 50 ppm): ++ (bacterial count was 1.0×10^6 CFU/ml to 1.4×10^7 CFU/ml)
Bacterial count (bacteria; wavelength 380 nm, irradiance 1200 μW/cm2, light intensity 30 J/cm2, photosensitizer 50 ppm): ++ (bacterial count was 1.0×10^6 CFU/ml to 1.4×10^7 CFU/ml)
Bacterial count (bacteria; wavelength 380 nm, irradiance 1200 μW/cm2, light intensity 50 J/cm2, photosensitizer 50 ppm): ++ (bacterial count was 1.0×10^6 CFU/ml to 1.4×10^7 CFU/ml)
Bacterial count (bacteria; wavelength 380 nm, irradiance 1200 μW/cm2, light intensity 100 J/cm2, photosensitizer 50 ppm): + (bacterial count was at least 1.0×10^2 CFU/ml and less than 1.0×10^6 CFU/ml)
Bacterial count (bacteria; wavelength 380 nm, irradiance 1200 μW/cm2, light intensity 200 J/cm2, photosensitizer 50 ppm): + (bacterial count was at least 1.0×10^2 CFU/ml and less than 1.0×10^6 CFU/ml)
Bacterial count (bacteria; wavelength 380 nm, irradiance 1200 μW/cm2, light intensity 400 J/cm2, photosensitizer 50 ppm): + (bacterial count was at least 1.0×10^2 CFU/ml and less than 1.0×10^6 CFU/ml)
Bacterial count (bacteria; [5]): ++ (bacterial count was 1.0×10^6 CFU/ml to 1.4×10^7 CFU/ml)
Bacterial count (bacteria; [6]): + (bacterial count was at least 1.0×10^2 CFU/ml and less than 1.0×10^6 CFU/ml)
Bacterial count (bacteria; [7]): + (bacterial count was at least 1.0×10^2 CFU/ml and less than 1.0×10^6 CFU/ml)
Bacterial count (bacteria; [8]): + (bacterial count was at least 1.0×10^2 CFU/ml and less than 1.0×10^6 CFU/ml)
Bacterial count (bacteria; [9]): − (bacterial count was at least 0 and less than 1.0×10^2 CFU/mil)
Bacterial count (bacteria; [10]): − (bacterial count was at least 0 and less than 1.0×10^2 CFU/mil)
Bacterial count (bacteria; wavelength 500 nm, irradiance 100 μW/cm2, light intensity 10 J/cm2, photosensitizer 50 ppm): ++ (bacterial count was 1.0×10^6 CFU/ml to 1.4×10^7 CFU/ml)
Bacterial count (bacteria; wavelength 500 nm, irradiance 100 μW/cm2, light intensity 30 J/cm2, photosensitizer 50 ppm): ++ (bacterial count was 1.0×10^6 CFU/ml to 1.4×10^7 CFU/ml)
Bacterial count (bacteria; wavelength 500 nm, irradiance 100 μW/cm2, light intensity 50 J/cm2, photosensitizer 50 ppm): ++ (bacterial count was 1.0×10^6 CFU/ml to 1.4×10^7 CFU/ml)
Bacterial count (bacteria; wavelength 500 nm, irradiance 100 μW/cm2, light intensity 100 J/cm2, photosensitizer 50 ppm): ++ (bacterial count was 1.0×10^6 CFU/ml to 1.4×10^7 CFU/ml)
Bacterial count (bacteria; wavelength 500 nm, irradiance 100 μW/cm2, light intensity 200 J/cm2, photosensitizer 50 ppm): + (bacterial count was at least 1.0×10^2 CFU/ml and less than 1.0×10^6 CFU/ml)
Bacterial count (bacteria; wavelength 500 nm, irradiance 100 μW/cm2, light intensity 400 J/cm2, photosensitizer 50 ppm): + (bacterial count was at least 1.0×10^2 CFU/ml and less than 1.0×10^6 CFU/ml)

Cc1cc2nc3[nH]c(=O)[nH]c(=O)c3nc2cc1C [Example 2, Lumichrome]
Bacterial count (bacteria; [5]): ++ (bacterial count was 1.0×10^6 CFU/ml to 1.4×10^7 CFU/ml)
Bacterial count (bacteria; [6]): + (bacterial count was at least 1.0×10^2 CFU/ml and less than 1.0×10^6 CFU/ml)
Bacterial count (bacteria; [7]): − (bacterial count was at least 0 and less than 1.0×10^2 CFU/mil)
Bacterial count (bacteria; [8]): − (bacterial count was at least 0 and less than 1.0×10^2 CFU/mil)
Bacterial count (bacteria; [9]): − (bacterial count was at least 0 and less than 1.0×10^2 CFU/mil)
Bacterial count (bacteria; [10]): − (bacterial count was at least 0 and less than 1.0×10^2 CFU/mil)

Cc1cc2nc3c(=O)[nH]c(=O)nc-3n(CC(O)C(O)C(O)COP(=O)([O-])O)c2cc1C.[Na+] (stereo not shown) [Example 6, Riboflavin sodium phosphate]
Bacterial count (bacteria; [5]): ++ (bacterial count was 1.0×10^6 CFU/ml to 1.4×10^7 CFU/ml)
Bacterial count (bacteria; [6]): + (bacterial count was at least 1.0×10^2 CFU/ml and less than 1.0×10^6 CFU/ml)
Bacterial count (bacteria; [7]): + (bacterial count was at least 1.0×10^2 CFU/ml and less than 1.0×10^6 CFU/ml)
Bacterial count (bacteria; [8]): + (bacterial count was at least 1.0×10^2 CFU/ml and less than 1.0×10^6 CFU/ml)
Bacterial count (bacteria; [9]): − (bacterial count was at least 0 and less than 1.0×10^2 CFU/mil)
Bacterial count (bacteria; [10]): − (bacterial count was at least 0 and less than 1.0×10^2 CFU/mil)

CCCC(=O)OCC(OC(=O)CCC)C(OC(=O)CCC)C(Cn1c2nc(=O)[nH]c(=O)c-2nc2cc(C)c(C)cc21)OC(=O)CCC (stereo not shown) [Example 7, Riboflavin butyrate]
Bacterial count (bacteria; [5]): ++ (bacterial count was 1.0×10^6 CFU/ml to 1.4×10^7 CFU/ml)
Bacterial count (bacteria; [6]): + (bacterial count was at least 1.0×10^2 CFU/ml and less than 1.0×10^6 CFU/ml)
Bacterial count (bacteria; [7]): + (bacterial count was at least 1.0×10^2 CFU/ml and less than 1.0×10^6 CFU/ml)
Bacterial count (bacteria; [8]): + (bacterial count was at least 1.0×10^2 CFU/ml and less than 1.0×10^6 CFU/ml)
Bacterial count (bacteria; [9]): − (bacterial count was at least 0 and less than 1.0×10^2 CFU/mil)
Bacterial count (bacteria; [10]): − (bacterial count was at least 0 and less than 1.0×10^2 CFU/mil)

CC(C)(C)c1cc(CCC(=O)OCC(COC(=O)CCc2cc(C(C)(C)C)c(O)c(C(C)(C)C)c2)(COC(=O)CCc2cc(C(C)(C)C)c(O)c(C(C)(C)C)c2)COC(=O)CCc2cc(C(C)(C)C)c(O)c(C(C)(C)C)c2)cc(C(C)(C)C)c1O [Irganox 1010]
pH change rate (%) [1, 2]: 5.8%
Evaluation of pH drop supression [1, 3]: A (pH change rate of 15% or lower)
pH change [1, 4]: 0.5

CC(C)(C)c1cc(Cn2c(=O)n(Cc3cc(C(C)(C)C)c(O)c(C(C)(C)C)c3)c(=O)n(Cc3cc(C(C)(C)C)c(O)c(C(C)(C)C)c3)c2=O)cc(C(C)(C)C)c1O [Irganox 3114]
pH change rate (%) [1, 2]: 9.3%
Evaluation of pH drop supression [1, 3]: A (pH change rate of 15% or lower)
pH change [1, 4]: 0.8

NCCO [Monoethanol amine]
pH change rate (%) [1, 2]: 17.4%
Evaluation of pH drop supression [1, 3]: B (pH change rate higher than 15% and at most 20%)
pH change [1, 4]: 1.5

CC(O)CN (stereo not shown) [Monoisopropanolamine]
pH change rate (%) [1, 2]: 19.8%
Evaluation of pH drop supression [1, 3]: B (pH change rate higher than 15% and at most 20%)
pH change [1, 4]: 1.7

CCC(C)Nc1ccc(NC(C)CC)cc1 (stereo not shown) [N,N′-Di-sec-butyl-1,4-phenylenediamine]
pH change rate (%) [1, 2]: 4.7%
Evaluation of pH drop supression [1, 3]: A (pH change rate of 15% or lower)
pH change [1, 4]: 0.4

O=C1O[C@H]([C@@H](O)CO)C([O-])=C1O.[Na+] [Sodium ascorbate]
pH change rate (%) [1, 2]: 24.4%
Evaluation of pH drop supression [1, 3]: C (pH change rate higher than 20% and at most 30%)
pH change [1, 4]: 2.1

CC(O)CN(CC(C)O)CC(C)O (stereo not shown) [Triisopropanolamine]
Evaluation of pH drop supression [1]: A (key: A: pH change rate of 15% or lower; B: pH change rate higher than 15% and at most 20%; C: pH change rate higher than 20% and at most 30%; D: pH change rate higher than 30%)
pH change [1]: 0.8
pH change rate (%) [1]: 9.3%

CC(C)(C)c1ccc(OP(Oc2ccc(C(C)(C)C)cc2C(C)(C)C)Oc2ccc(C(C)(C)C)cc2C(C)(C)C)c(C(C)(C)C)c1 [Tris(2,4-di-tert-butylphenyl) phosphite]
Evaluation of pH drop supression [1]: A (key: A: pH change rate of 15% or lower; B: pH change rate higher than 15% and at most 20%; C: pH change rate higher than 20% and at most 30%; D: pH change rate higher than 30%)
pH change [1]: 0.4
pH change rate (%) [1]: 4.7%
